Several values for one entry are separate records, joined by “and”; a condition that tells them apart may be missing. Identical values can stand only once.
How the values were obtained:
Leishmania donovani = experiment: Leishmania intramacrophage assay; format: functional, organism-based; conditions: for IC50: Leishmania donovani
[1] = microbe, parasite or virus in culture; conditions: Mycobacterium tuberculosis, 96 h, read-out: pIC50 (converted)
[2] = microbe, parasite or virus in culture; conditions: Mycobacterium tuberculosis, 72 h, read-out: pIC50 (converted)
[3] = In vitro enzyme assay to detect hydrolysis of chlorophenol red-beta-D-[…] directly proportional to the number of Toxoplasma stably expressing beta-galactosidase; format: functional, organism-based, Toxoplasma gondii
Histidine--tRNA ligase = target: T1, Histidine--tRNA ligase (Leishmania infantum, UniProt A4I591); experiment: Leishmania infantum Histidine tRNA synthetase (LdHisRS); format: functional
T1 sequence (A4I591 whole entry): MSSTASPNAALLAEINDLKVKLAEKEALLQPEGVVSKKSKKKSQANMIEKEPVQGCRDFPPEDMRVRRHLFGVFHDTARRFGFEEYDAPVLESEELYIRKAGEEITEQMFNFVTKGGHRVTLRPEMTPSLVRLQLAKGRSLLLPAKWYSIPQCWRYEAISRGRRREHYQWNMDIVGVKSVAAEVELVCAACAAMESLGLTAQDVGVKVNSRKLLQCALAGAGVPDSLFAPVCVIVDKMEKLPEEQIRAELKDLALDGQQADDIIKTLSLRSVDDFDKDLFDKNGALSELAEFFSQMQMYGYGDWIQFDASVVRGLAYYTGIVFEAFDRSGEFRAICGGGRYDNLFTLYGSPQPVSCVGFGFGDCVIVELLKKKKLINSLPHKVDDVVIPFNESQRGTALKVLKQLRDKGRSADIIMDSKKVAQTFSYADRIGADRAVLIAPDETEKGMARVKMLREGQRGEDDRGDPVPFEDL

Schistosoma mansoni = experiment: High throughput screening of compounds against Schistosoma mansoni motility; format: functional; set-up: dose or concentration left out as unconfirmed

Compound | IC50 (Leishmania donovani) [µM] | other results
Cc1cc(N(C)CC2COc3ccccc3O2)nc(C)n1 (centres undefined) | > 50.1 | 
CC(C)N1CCN(c2ccc3ccc(C(=O)NC4CCCC4)cn23)CC1 | > 50.1 | 
NS(=O)(=O)NCC1(c2ccccc2Br)CC1 | > 50.1 | 
Cc1cnc(N2CCc3onc(COc4cccnc4)c3C2)nc1 | > 50.1 | 
Cc1csc(C2(NCC(O)COc3ccc(F)cc3)CCC2)n1 (centres undefined) | > 50.1 | 
CS(=O)(=O)N1CCN(Cc2csc(-c3ncccn3)n2)CC1 | > 50.1 | 
CN(C)C(=O)N1CCN(c2ccc3ccc(C(=O)NC4CC4)cn23)CC1 | > 50.1 | 
Cc1[nH]/c(=N\C(=O)c2csc(NC3CCCC3)n2)sc1C |  | IC50 [1]: > 50.1 µM; IC50 [2]: 19.8 µM; pIC50 [3]: 5.387; IC50 ([3]; Toxoplasma gondii): 3.16 µM; IC50 (Histidine--tRNA ligase): 18 µM and 18.2 µM
FC1(F)CCN(Cc2ccncc2)CC12CCN(c1cnccn1)C2 (centres undefined) | > 50.1 | 
CN1CCN(CC(NCc2ccc(F)cc2)c2ccccc2)CC1 (centres undefined) | 13.6 | 
COCc1ccc(CNC(=O)C2=NN(c3ccccc3)C(=O)CN2)cc1 | > 50.1 | 
Cc1cc(C(F)(F)F)nc(N2CCN(Cc3nccn3C)CC2)n1 | > 50.1 | 
O=c1[nH]cccc1-c1nccc(C2(c3ccccc3Cl)CCNCC2)n1 | > 50.1 | 
Cc1cc(=O)n2nc(Oc3ccc(Cl)c(C)c3)sc2n1 | > 50.1 | pIC50 (Leishmania donovani): 4.378
O=C(c1cc[nH]n1)N1CCC(F)(F)C2(CCN(c3ccccn3)C2)C1 (centres undefined) | > 50.1 | 
O=C(NCCN1CCOCC1)c1ccc(-n2ccc3ccccc32)s1 | > 50.1 | 
Clc1ccccc1C1(c2ccnc(-c3ncccn3)n2)CCNCC1 | > 50.1 | 
O=C(c1c[nH]cn1)N1CCC(F)(F)C2(CCN(c3ccccn3)C2)C1 (centres undefined) | > 50.1 | 
CC1CCCN(Cc2ccnc(-c3cccnc3)n2)C1 (centres undefined) | > 50.1 | 
CC(=O)N1CCc2nc3sc(C(N)=O)c(N)c3c(C(F)(F)F)c2C1 | > 50.1 | 
CN(Cc1ccncc1)C1COC2(CCN(Cc3cccs3)CC2)C1 (centres undefined) | > 50.1 | 

Compound | IC50 (Leishmania donovani) [µM] | other results
CNC(=O)c1sccc1N(C)S(=O)(=O)c1ccc(Cl)cc1 | > 50.1 | 
CCS(=O)(=O)c1ccc(N2CCC(NC(=O)CCC(C)C)CC2)cc1 | > 50.1 | 
COc1cccc(Nc2nc(-c3ccncc3)nc3c2CNCC3)c1.Cl |  | pIC50 (Leishmania donovani): 4.645 and 4.976
Cc1ccc(N2CCC3(CN(CCO)CCC3(F)F)C2)nn1 (centres undefined) | > 50.1 | 
CCOCCN(CCOCC)c1nc(C)nc2sccc12 | > 50.1 | 
Cc1sc2nc(C(F)(F)F)nc(N3CCN(S(C)(=O)=O)CC3)c2c1C | > 50.1 | 
CC(C)C[C@H](N)C(=O)N1CC2(CCNCC2)c2cc(Cl)ccc21.Cl.Cl |  | pIC50 (Leishmania donovani): 4.898 and 5.256
CCCC1CCCN(Cc2csc(-c3ncccn3)n2)CC1 (centres undefined) | 18.4 | pIC50 (Leishmania donovani): 4.896
CC(O)CN1CCN(Cc2csc(-c3ncccn3)n2)CC1 (centres undefined) | > 50.1 | 
NC(=O)C1CCN(Cc2csc(-c3ncccn3)n2)CC1 | > 50.1 | 
Cc1ccc(N2CCC3(CN(Cc4cccs4)CCC3(F)F)C2)nn1 (centres undefined) | > 50.1 | 
Cc1nnc(NCC2(c3ccccc3)CCOCC2)c(C#N)c1C | > 50.1 | 
Cc1cnc2n(c1=O)CC(C(=O)Nc1cccc3cccnc13)CS2 (centres undefined) |  | Percent Effect (Schistosoma mansoni): -85.49%; IC50 (Histidine--tRNA ligase): 78.6 µM and 68.6 µM
CN1CCN(c2ccc3ccc(C(=O)N4CCCCO4)cn23)CC1 | > 50.1 | 
CCn1ncc(-c2cc(C(F)F)nc3sc(C(N)=O)c(N)c23)c1C | > 50.1 | 
NC(=O)C1CCN(c2cncc(-n3cccn3)n2)CC1 | > 50.1 | 
O=C(c1c[nH]cn1)N1CCC(F)(F)C2(CCN(c3ncccn3)C2)C1 (centres undefined) | > 50.1 | 
COc1ccc(C)cc1CNC(=O)C1=NN(c2ccccc2)C(=O)CN1 | > 50.1 | 
CN(CC1CC1)c1ccc2ccc(C(=O)NC3CCCCC3)cn12 | > 50.1 | 
O=C(O)C1CCCN1c1nc(C2CC2)cc(C(F)(F)F)n1 (centres undefined) | > 50.1 | 
CCC1CCCN(Cc2nc(N)c3ccccc3n2)C1 (centres undefined) | > 50.1 | 

From ChEMBL document CHEMBL3988442, “University of Dundee, Small-Polar-MMV Screening Library” (2021)
